Assays:
[1] = molecular target: T1, Alpha-2C adrenergic receptor (Homo sapiens) (UniProt P18825); assay: Inhibition of Alpha-2C adrenergic receptor at 10 uM
T1 sequence (whole entry): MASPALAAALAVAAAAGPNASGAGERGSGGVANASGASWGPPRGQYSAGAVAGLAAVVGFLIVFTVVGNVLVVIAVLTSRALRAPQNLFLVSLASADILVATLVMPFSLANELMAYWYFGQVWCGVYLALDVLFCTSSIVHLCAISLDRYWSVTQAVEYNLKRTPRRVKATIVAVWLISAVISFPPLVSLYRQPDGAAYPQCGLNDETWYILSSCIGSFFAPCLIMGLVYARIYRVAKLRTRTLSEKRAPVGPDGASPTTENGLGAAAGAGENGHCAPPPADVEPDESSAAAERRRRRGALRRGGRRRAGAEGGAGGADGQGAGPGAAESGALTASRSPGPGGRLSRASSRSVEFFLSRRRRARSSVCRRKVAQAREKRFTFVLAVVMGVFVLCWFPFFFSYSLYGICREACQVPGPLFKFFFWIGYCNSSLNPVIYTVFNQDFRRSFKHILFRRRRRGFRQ

[2] = molecular target: Beta-2 adrenergic receptor (Homo sapiens) (UniProt P07550); assay: Inhibition of beta2 adrenergic receptor at 10 uM
[3] = molecular target: D(3) dopamine receptor (Homo sapiens) (UniProt P35462); assay: Inhibition of D3 dopamine receptor at 10 uM
[4] = molecular target: Sodium-dependent dopamine transporter (Homo sapiens) (UniProt Q01959); assay: Inhibition of dopamine transporter at 10 uM
[5] = molecular target: Histamine H2 receptor (Homo sapiens) (UniProt P25021); assay: Inhibition of H2 receptor at 10 uM
[6] = molecular target: Histamine H3 receptor (Homo sapiens) (UniProt Q9Y5N1); assay: Inhibition of H3 receptor at 10 uM
[7] = molecular target: T2, 5-hydroxytryptamine receptor 1A (Homo sapiens) (UniProt P08908); assay: Inhibition of 5-HT1A receptor at 10 uM
T2 sequence (whole entry): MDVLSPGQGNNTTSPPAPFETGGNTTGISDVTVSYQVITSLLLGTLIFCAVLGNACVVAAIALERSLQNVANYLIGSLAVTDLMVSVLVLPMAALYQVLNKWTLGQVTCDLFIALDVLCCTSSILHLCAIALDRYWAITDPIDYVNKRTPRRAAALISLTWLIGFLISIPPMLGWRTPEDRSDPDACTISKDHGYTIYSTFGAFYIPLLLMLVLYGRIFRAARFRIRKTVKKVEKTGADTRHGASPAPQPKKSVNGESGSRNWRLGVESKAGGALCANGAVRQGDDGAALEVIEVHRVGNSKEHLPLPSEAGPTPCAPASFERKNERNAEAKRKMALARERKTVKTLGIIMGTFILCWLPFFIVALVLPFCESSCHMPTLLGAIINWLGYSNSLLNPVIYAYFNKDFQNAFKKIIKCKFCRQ

[8] = molecular target: 5-hydroxytryptamine receptor 2A (Homo sapiens) (UniProt P28223); assay: Inhibition of 5-HT2A receptor at 10 uM
[9] = molecular target: T3, 5-hydroxytryptamine receptor 2C (Homo sapiens) (UniProt P28335); assay: Inhibition of 5-HT2C receptor at 10 uM
T3 sequence (whole entry): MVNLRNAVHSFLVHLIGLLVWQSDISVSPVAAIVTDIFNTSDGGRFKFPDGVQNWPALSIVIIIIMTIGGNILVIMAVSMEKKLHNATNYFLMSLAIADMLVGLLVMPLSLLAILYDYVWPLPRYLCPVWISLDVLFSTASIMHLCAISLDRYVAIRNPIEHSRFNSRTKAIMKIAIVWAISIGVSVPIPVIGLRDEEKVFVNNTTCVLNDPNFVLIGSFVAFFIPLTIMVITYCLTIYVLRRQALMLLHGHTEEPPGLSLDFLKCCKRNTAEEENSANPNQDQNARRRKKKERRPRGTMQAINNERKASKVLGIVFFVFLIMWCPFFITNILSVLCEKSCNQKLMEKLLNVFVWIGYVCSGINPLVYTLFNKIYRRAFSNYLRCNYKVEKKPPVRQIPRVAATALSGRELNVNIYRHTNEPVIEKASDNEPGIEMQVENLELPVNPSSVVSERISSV

[10] = molecular target: 5-hydroxytryptamine receptor 5A (Homo sapiens) (UniProt P47898); assay: Inhibition of 5-HT5A receptor at 10 uM
[11] = molecular target: 5-hydroxytryptamine receptor 6 (Homo sapiens) (UniProt P50406); assay: Inhibition of 5-HT6 receptor at 10 uM
[12] = molecular target: 5-hydroxytryptamine receptor 7 (Homo sapiens) (UniProt P34969); assay: Inhibition of 5-HT7 receptor at 10 uM
[13] = molecular target: Sodium-dependent serotonin transporter (Homo sapiens) (UniProt P31645); assay: Inhibition of 5HT transporter at 10 uM
[14] = molecular target: T4, Muscarinic acetylcholine receptor M1 (Homo sapiens) (UniProt P11229); assay: Inhibition of M1 muscarinic receptor at 10 uM
T4 sequence (whole entry): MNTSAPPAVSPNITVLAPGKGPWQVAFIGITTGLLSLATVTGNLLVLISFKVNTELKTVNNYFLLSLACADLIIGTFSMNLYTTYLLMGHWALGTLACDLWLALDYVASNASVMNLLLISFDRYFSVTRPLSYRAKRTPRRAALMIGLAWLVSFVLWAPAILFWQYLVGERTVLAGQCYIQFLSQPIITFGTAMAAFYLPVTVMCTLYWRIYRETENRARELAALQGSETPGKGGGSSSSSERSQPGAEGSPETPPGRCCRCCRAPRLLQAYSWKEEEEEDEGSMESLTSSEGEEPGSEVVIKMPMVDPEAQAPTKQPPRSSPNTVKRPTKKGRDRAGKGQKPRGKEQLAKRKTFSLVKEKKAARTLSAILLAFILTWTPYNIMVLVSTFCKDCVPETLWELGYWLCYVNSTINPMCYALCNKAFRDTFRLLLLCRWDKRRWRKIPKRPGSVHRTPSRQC

[15] = molecular target: Muscarinic acetylcholine receptor M3 (Homo sapiens) (UniProt P20309); assay: Inhibition of M3 muscarinic receptor at 10 uM
[16] = molecular target: Sodium-dependent noradrenaline transporter (Homo sapiens) (UniProt P23975); assay: Inhibition of norepinephrine receptor at 10 uM
[17] = molecular target: Mu-type opioid receptor (Homo sapiens) (UniProt P35372); assay: Inhibition of mu opioid receptor at 10 uM

Measured: inhibition

Sodium-dependent serotonin transporter (Homo sapiens), sequence (P31645 whole entry, looked up): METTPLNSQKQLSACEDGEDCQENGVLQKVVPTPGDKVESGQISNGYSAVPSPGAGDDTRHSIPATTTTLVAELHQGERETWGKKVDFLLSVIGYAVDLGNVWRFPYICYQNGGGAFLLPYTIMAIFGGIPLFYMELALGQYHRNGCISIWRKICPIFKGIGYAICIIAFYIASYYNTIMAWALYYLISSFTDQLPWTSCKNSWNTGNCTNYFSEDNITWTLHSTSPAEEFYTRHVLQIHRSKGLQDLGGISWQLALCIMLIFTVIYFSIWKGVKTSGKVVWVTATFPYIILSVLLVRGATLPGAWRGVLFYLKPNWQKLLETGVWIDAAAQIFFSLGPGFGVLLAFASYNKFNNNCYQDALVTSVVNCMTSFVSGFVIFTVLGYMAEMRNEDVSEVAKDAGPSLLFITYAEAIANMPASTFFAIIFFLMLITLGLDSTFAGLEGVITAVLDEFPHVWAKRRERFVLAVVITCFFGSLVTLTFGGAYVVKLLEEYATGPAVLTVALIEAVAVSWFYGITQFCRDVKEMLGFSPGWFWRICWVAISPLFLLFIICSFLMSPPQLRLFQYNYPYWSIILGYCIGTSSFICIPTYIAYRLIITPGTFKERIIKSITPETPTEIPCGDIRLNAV
5-hydroxytryptamine receptor 2A (Homo sapiens), sequence (P28223 whole entry): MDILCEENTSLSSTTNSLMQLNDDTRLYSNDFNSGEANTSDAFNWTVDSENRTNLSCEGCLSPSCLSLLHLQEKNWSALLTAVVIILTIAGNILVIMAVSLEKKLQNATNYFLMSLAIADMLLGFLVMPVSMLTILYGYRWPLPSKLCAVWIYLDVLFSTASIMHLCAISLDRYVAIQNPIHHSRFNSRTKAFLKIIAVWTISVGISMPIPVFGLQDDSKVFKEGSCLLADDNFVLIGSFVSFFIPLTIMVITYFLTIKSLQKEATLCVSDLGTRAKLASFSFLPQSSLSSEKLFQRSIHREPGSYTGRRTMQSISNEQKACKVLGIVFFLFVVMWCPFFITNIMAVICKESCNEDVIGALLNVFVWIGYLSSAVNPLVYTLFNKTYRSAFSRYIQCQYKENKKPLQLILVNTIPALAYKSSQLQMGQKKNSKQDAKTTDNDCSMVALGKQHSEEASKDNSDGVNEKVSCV
5-hydroxytryptamine receptor 6 (Homo sapiens), sequence (P50406 whole entry): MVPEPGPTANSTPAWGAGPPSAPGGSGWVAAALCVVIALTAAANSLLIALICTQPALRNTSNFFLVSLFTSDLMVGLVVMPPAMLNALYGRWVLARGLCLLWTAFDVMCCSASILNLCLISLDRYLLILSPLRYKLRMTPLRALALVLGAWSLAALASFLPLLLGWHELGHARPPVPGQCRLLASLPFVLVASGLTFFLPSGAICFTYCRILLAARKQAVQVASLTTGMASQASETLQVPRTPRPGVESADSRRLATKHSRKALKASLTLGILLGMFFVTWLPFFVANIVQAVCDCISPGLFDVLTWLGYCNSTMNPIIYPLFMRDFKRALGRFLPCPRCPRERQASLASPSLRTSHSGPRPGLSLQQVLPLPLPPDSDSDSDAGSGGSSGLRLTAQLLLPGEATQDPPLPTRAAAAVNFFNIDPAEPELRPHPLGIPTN
5-hydroxytryptamine receptor 5A (Homo sapiens), sequence (P47898 whole entry): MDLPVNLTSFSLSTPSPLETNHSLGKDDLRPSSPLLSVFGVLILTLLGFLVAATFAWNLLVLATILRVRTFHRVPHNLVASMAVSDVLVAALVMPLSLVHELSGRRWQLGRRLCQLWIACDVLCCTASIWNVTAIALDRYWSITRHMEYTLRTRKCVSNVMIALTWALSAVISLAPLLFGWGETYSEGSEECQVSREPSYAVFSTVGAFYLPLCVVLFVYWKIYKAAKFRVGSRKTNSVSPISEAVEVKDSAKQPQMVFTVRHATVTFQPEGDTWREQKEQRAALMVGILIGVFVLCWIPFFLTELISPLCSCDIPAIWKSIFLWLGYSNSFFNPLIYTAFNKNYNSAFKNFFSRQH
Muscarinic acetylcholine receptor M3 (Homo sapiens), sequence (P20309 whole entry, looked up): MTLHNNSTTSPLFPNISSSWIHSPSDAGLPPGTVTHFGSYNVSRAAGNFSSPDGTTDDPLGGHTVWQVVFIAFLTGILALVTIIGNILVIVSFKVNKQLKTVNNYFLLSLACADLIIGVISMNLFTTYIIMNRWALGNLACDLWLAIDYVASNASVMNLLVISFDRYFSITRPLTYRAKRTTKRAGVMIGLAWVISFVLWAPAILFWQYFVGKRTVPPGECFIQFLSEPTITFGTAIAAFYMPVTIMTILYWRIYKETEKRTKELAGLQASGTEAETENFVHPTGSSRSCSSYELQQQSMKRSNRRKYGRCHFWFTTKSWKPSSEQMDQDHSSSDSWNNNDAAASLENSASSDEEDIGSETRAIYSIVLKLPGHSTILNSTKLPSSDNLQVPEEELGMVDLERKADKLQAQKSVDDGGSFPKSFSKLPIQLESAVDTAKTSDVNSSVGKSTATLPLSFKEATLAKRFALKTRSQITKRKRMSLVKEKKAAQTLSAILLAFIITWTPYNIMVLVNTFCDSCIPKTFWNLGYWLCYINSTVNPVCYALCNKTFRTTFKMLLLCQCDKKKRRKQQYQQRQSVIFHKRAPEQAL
Beta-2 adrenergic receptor (Homo sapiens), sequence (P07550 whole entry, looked up): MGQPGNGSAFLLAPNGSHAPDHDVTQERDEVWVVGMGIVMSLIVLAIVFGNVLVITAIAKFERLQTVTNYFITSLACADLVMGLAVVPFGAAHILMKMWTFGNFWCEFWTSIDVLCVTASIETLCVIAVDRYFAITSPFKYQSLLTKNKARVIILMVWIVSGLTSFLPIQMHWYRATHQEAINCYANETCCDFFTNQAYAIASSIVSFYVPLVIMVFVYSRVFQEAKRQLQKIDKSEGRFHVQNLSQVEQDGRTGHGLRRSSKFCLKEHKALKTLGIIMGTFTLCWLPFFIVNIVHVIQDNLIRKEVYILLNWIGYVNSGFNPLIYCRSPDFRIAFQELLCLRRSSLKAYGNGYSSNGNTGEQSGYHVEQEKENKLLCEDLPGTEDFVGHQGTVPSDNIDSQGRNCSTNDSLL
Histamine H2 receptor (Homo sapiens), sequence (P25021 whole entry): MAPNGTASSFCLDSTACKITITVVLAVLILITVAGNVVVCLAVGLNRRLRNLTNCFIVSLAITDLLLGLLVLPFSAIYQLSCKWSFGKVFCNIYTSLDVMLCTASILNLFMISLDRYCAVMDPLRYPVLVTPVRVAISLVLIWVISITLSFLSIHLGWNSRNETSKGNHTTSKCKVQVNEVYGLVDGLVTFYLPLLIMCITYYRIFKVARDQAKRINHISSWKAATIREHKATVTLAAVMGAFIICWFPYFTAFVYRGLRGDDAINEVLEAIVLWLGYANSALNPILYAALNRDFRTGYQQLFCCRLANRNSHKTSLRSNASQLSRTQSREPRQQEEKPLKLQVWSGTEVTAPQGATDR
Sodium-dependent dopamine transporter (Homo sapiens), sequence (Q01959 whole entry): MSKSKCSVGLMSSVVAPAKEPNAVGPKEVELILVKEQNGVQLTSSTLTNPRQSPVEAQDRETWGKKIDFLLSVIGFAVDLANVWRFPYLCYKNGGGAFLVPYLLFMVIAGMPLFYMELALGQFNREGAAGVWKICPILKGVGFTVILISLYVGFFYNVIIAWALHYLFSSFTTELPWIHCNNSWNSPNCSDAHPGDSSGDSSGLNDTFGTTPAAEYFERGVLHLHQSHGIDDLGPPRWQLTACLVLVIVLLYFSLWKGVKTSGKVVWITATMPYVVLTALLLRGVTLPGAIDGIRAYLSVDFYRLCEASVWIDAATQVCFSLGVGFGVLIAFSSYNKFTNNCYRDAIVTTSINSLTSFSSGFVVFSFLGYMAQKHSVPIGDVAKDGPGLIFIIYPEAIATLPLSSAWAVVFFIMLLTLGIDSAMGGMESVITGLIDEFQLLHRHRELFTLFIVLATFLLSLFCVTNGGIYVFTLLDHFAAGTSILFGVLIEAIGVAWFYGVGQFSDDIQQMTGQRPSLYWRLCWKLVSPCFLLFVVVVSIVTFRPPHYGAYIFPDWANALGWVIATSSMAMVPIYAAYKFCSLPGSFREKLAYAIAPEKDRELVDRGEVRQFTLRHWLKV
Sodium-dependent noradrenaline transporter (Homo sapiens), sequence (P23975 whole entry): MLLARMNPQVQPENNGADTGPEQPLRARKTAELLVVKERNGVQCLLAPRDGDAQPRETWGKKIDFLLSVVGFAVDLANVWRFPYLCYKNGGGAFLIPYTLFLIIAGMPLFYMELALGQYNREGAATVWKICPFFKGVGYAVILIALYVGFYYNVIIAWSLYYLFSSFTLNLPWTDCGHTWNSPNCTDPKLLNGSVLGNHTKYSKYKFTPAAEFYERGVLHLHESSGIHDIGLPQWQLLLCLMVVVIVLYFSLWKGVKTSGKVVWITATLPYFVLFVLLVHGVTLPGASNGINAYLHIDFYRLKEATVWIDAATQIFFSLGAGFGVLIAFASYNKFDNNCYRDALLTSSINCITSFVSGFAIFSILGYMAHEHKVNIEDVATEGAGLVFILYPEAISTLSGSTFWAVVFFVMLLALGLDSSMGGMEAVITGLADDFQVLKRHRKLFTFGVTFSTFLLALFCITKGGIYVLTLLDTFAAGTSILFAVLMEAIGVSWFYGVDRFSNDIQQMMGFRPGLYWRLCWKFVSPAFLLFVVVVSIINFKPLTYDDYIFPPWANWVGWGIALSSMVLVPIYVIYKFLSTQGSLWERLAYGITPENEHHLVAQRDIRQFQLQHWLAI
Mu-type opioid receptor (Homo sapiens), sequence (P35372 whole entry): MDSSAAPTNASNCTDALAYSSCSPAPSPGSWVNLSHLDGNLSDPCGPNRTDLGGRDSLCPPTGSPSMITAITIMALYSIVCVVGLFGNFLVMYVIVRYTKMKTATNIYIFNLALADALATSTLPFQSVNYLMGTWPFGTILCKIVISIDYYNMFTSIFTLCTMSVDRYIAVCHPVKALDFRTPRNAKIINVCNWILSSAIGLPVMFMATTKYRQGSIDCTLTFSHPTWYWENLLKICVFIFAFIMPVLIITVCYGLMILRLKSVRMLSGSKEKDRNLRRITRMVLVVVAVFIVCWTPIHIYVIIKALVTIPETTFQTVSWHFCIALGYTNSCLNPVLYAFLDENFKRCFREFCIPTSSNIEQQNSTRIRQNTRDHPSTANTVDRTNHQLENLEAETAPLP

CCCCOc1ccc(-c2nn3c(C)cc(C)nc3c2CC(=O)N(CC)CC)cc1
< 50%: all assays above

C#CCOc1ccc(-c2nn3c(C)cc(C)nc3c2CC(=O)N(CC)CC)cc1
< 50%: all assays above

CCOc1ccc(-c2nn3c(C)cc(C)nc3c2CC(=O)N(CC)CC)cc1
< 50%: all assays above

CCCOc1ccc(-c2nn3c(C)cc(C)nc3c2CC(=O)N(CC)CC)cc1
< 50%: all assays above

From ChEMBL document CHEMBL1255512, “Pyrazolo[1,5-a]pyrimidine acetamides: 4-Phenyl alkyl ether derivatives as potent ligands for the 18 kDa translocator protein (TSPO)” (Bioorg Med Chem Lett, 2010)
